In one experiment the test system is NCI-H460. The experiment in a line: Cytotoxicity against human NCI-H460 after 72 hrs by sulforhodamine B assay. The class given is functional, cell-based. Conditions: NCI-H460, 72 h. (In general: In SRB staining, fixed cells bind dye roughly in proportion to their protein.)
The target of experiment [1] is Heat shock protein HSP 90-beta (Homo sapiens, UniProt P08238). The experiment in a line: Binding affinity to Hsp90 after 4 hrs by fluorescence polarization assay. In general terms: Polarisation of emitted light reports the rotation of a fluorescent probe.

The structures appear in SMILES notation.

Chain of Heat shock protein HSP 90-beta (P08238 whole entry): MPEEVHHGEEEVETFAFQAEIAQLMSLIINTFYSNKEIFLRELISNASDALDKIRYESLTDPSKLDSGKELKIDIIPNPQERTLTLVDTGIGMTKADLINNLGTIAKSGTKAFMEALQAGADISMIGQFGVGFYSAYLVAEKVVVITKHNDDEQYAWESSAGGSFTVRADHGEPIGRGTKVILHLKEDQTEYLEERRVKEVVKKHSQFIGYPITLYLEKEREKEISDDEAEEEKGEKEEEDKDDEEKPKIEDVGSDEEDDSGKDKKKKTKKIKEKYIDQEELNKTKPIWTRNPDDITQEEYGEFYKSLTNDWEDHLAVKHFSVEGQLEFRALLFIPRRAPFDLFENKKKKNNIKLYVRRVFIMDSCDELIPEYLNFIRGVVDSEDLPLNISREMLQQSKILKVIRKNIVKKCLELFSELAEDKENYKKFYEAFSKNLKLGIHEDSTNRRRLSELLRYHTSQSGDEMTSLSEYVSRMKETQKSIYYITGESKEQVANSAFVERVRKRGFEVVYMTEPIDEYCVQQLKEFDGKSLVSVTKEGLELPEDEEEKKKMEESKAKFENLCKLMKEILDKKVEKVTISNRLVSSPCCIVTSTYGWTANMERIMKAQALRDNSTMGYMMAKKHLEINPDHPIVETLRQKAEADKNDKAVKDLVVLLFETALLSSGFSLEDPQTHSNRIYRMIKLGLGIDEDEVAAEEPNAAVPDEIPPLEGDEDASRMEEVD

In general, IC50 refers to the point on the concentration scale where inhibition reaches its midpoint. Read a high IC50 as weaker potency in that assay. For `CCNC(=O)c1noc(-c2cc(C(C)C)c(O)cc2O)c1NC(=O)[C@@H]1CC[C@H](CO)C1` (relative stereo), the IC50 is over 260 nM in the experiment on NCI-H460 and 12.6 nM in experiment [1].
Turning to `CCNC(=O)c1noc(-c2cc(Cl)c(O)cc2O)c1NC(=O)c1sccc1C`, the IC50 worked out at 410 nM in the experiment on NCI-H460 and 74 nM in experiment [1].
In the case of `CCNC(=O)c1noc(-c2cc(C(C)C)c(O)cc2O)c1NC(=O)c1cc(-c2ccccc2)on1`, the IC50 in the experiment with NCI-H460 was over 1000 nM; in experiment [1], 250 nM.
In the case of `CCNC(=O)c1noc(-c2cc(C(C)C)c(O)cc2O)c1NC(=O)C1CCN(C)CC1`, the results for the IC50 (in the experiment on NCI-H460; in experiment [1]) were over 1000 nM and 24 nM, respectively.
For `CCNC(=O)c1noc(-c2cc(Cl)c(O)cc2O)c1NC(=O)C12CC3CC(CC(C3)C1)C2` the same measures were 750 nM and 250 nM.
For the molecule `CCNC(=O)c1noc(-c2cc(C(C)C)c(O)cc2O)c1NC(=O)[C@H]1CC[C@@H](CO)CC1`, the half-inhibitory concentration (IC50) was 870 nM with NCI-H460 and 15 nM in experiment [1].
As to `CCNC(=O)c1noc(-c2cc(Cl)c(O)cc2O)c1NC(=O)c1cc(OC)c(OC)c(OC)c1`, the IC50 was over 1000 nM in the experiment with NCI-H460 and 130 nM in experiment [1].
The matching figures for `CCNC(=O)c1noc(-c2cc(C(C)C)c(O)cc2O)c1NC(=O)[C@@H]1CC[C@H](C(=O)O)C1`: over 1000 nM and 39 nM.
The matching figures for `COc1ccc(C(=O)Nc2c(C(=O)NCC(F)(F)F)noc2-c2cc(Cl)c(O)cc2O)cc1`: over 1000 nM and 160 nM.
As for `CCNC(=O)c1noc(-c2cc(Cl)c(O)cc2O)c1NC(C)=O`, the IC50 is over 1000 nM in the experiment on NCI-H460 and 37 nM in experiment [1].
Consider `CCNC(=O)c1noc(-c2cc(C(C)C)c(O)cc2O)c1NC(=O)[C@@H]1CC[C@H](CN2CCOCC2)C1` (relative stereo), for which the IC50 was 170 nM with NCI-H460 and 12 nM in experiment [1].
For `CCNC(=O)c1noc(-c2cc(C(C)C)c(O)cc2O)c1NC(=O)c1ccc(N2CCNCC2)cc1` the same measures were over 1000 nM and 32 nM.
`CCNC(=O)c1noc(-c2cc(C(C)C)c(O)cc2O)c1NC(=O)c1ccc(N2CCCC2)cc1`: the figures for the concentration for half-maximal inhibition (IC50) (in the experiment on NCI-H460; in experiment [1]) were 810 nM and 22 nM, respectively.
The matching figures for `CCNC(=O)c1noc(-c2cc(C(C)C)c(O)cc2O)c1NC(=O)[C@H]1CC[C@H](OC(=O)CN)CC1`: over 1000 nM and under 5 nM.
As for `CCNC(=O)c1noc(-c2cc(C(C)C)c(O)cc2O)c1NC(C)=O`, the 50% inhibitory concentration (IC50) in the experiment on NCI-H460 was 81 nM; in experiment [1] it was 55 nM.
`CCNC(=O)c1noc(-c2cc(C(C)C)c(O)cc2O)c1NC(=O)c1ccc(OC)cc1`: the IC50 in the experiment with NCI-H460 was 17 nM; in experiment [1] it was 26 nM.
For `CCNC(=O)c1noc(-c2cc(Cl)c(O)cc2O)c1NC(=O)c1ccc(Br)cc1` the same measures were over 1000 nM and 153 nM.
`CCNC(=O)c1noc(-c2cc(C(C)C)c(O)cc2O)c1NC(=O)C1CC(O)C1` (configuration not stated): the values for the IC50 (in the experiment with NCI-H460; in experiment [1]) were 920 nM and 14 nM, respectively.
For `CCNC(=O)c1noc(-c2cc(C(C)C)c(O)cc2O)c1NC(=O)[C@H]1CC[C@@H](N2CCOCC2)CC1`, the IC50 came out at 610 nM with NCI-H460 and 7.4 nM in experiment [1].
The matching figures for `CCNC(=O)c1noc(-c2cc(C(C)C)c(O)cc2O)c1NC(=O)C1CCC(C(F)(F)F)CC1` (configuration not stated): 42 nM and 240 nM.
In the case of `CCNC(=O)c1noc(-c2cc(C(C)C)c(O)cc2O)c1NC(=O)c1ccc2cc[nH]c2c1`, the IC50 worked out at 170 nM with NCI-H460 and 33 nM in experiment [1].
The matching figures for `CCNC(=O)c1noc(-c2cc(C(C)C)c(O)cc2O)c1NC(=O)c1ccc(N(C)C)cc1`: 240 nM and 34 nM.
Consider `CCNC(=O)c1noc(-c2cc(C(C)C)c(O)cc2O)c1NC(=O)[C@H]1CC[C@@H](CN2CCOCC2)CC1`, for which the IC50 in the experiment on NCI-H460 was determined as 140 nM; in experiment [1], 19.6 nM.
For `CCNC(=O)c1noc(-c2cc(C(C)C)c(O)cc2O)c1NC(=O)[C@H]1CC[C@H](N2CCOCC2)CC1`, the IC50 was 680 nM in the experiment with NCI-H460 and under 5 nM in experiment [1].
The matching figures for `CCNC(=O)c1noc(-c2cc(C(C)C)c(O)cc2O)c1NC(=O)[C@H]1CC[C@H](O)CC1`: over 1000 nM and under 5 nM.
Consider `CCNC(=O)c1noc(-c2cc(C(C)C)c(O)cc2O)c1NC(=O)c1ccc(OC)c(F)c1`, for which the IC50 in the experiment on NCI-H460 amounted to 55 nM; in experiment [1] it was 34 nM.
Take `CCNC(=O)c1cc(C(=O)Nc2c(C(=O)NCC)noc2-c2cc(C(C)C)c(O)cc2O)on1`: the IC50 was over 1000 nM in the experiment with NCI-H460 and 24 nM in experiment [1].
Regarding `CCNC(=O)c1noc(-c2cc(C(C)C)c(O)cc2O)c1NC(=O)[C@H]1CC[C@H](CN)CC1`, the values for the half-maximal inhibitory concentration (IC50) (in the experiment with NCI-H460; in experiment [1]) were over 1000 nM and 40 nM, respectively.
For `CCNC(=O)c1noc(-c2cc(C(C)C)c(O)cc2O)c1NC(=O)c1ccc(Br)o1` the same measures were 19 nM and 22 nM.
For `CCNC(=O)c1noc(-c2cc(Cl)c(O)cc2O)c1NC(=O)C(C)(C)C`, the values for the half-maximal inhibitory concentration (IC50) (with NCI-H460; in experiment [1]) were 310 nM and 85 nM, respectively.
For the molecule `CCNC(=O)c1noc(-c2cc(Cl)c(O)cc2O)c1NC(=O)c1ccc(OC)c(OC)c1`, the 50% inhibitory concentration (IC50) was over 1000 nM in the experiment on NCI-H460 and 163 nM in experiment [1].
The matching figures for `CCNC(=O)c1noc(-c2cc(C(C)C)c(O)cc2O)c1NC(=O)[C@H]1CC[C@H](CNC)CC1`: over 1000 nM and 8.6 nM.
For `COc1ccc(C(=O)Nc2c(C(=O)N3CC(F)(F)C3)noc2-c2cc(Cl)c(O)cc2O)cc1` the same measures were over 1000 nM and over 100000 nM.
The matching figures for `CCNC(=O)c1noc(-c2cc(C(C)C)c(O)cc2O)c1NC(=O)C1CCC(C(C)(C)C)CC1` (configuration not stated): 200 nM and 30 nM.
On to `CCNC(=O)c1noc(-c2cc(C(C)C)c(O)cc2O)c1NC(=O)c1cccc2cccnc12`, for which the figures for the IC50 (with NCI-H460; in experiment [1]) were 490 nM and 36 nM, respectively.
Turning to `CCNC(=O)c1noc(-c2cc(C(C)C)c(O)cc2O)c1NC(=O)c1ccc(-n2cccc2)cc1`, the IC50 with NCI-H460 was over 1000 nM; in experiment [1], 32 nM.
The matching figures for `CCNC(=O)c1noc(-c2cc(Cl)c(O)cc2O)c1NCc1ccc(OC)cc1`: over 1000 nM and 430 nM.
As to `CCNC(=O)c1noc(-c2cc(C(C)C)c(O)cc2O)c1NC(=O)c1oc2ccccc2c1C`, the 50% inhibitory concentration (IC50) is over 1000 nM in the experiment on NCI-H460 and 260 nM in experiment [1].
With `CCNC(=O)c1noc(-c2cc(C(C)C)c(O)cc2O)c1NC(=O)c1ccco1`, the concentration for half-maximal inhibition (IC50) with NCI-H460 is 22 nM; in experiment [1] it was under 5 nM.
For `CCNC(=O)c1noc(-c2cc(C(C)C)c(O)cc2O)c1NC(=O)[C@H]1CC[C@H](CNS(=O)(=O)c2ccccc2)CC1` the same measures were over 1000 nM and under 5 nM.
On to `CCNC(=O)c1noc(-c2cc(C(C)C)c(O)cc2O)c1NC(=O)c1cc(C(C)=O)on1`, for which the values for the IC50 (with NCI-H460; in experiment [1]) were 82 nM and 19 nM, respectively.
The matching figures for `CCNC(=O)c1noc(-c2cc(C(C)C)c(O)cc2O)c1NC(=O)c1sc(-c2ccncc2)nc1C`: over 1000 nM and 27 nM.
As to `CCNC(=O)c1noc(-c2cc(C(C)C)c(O)cc2O)c1NC(=O)CCN1CCN(C)CC1`, the IC50 is over 1000 nM in the experiment with NCI-H460 and 120 nM in experiment [1].
For `CCNC(=O)c1noc(-c2cc(C(C)C)c(O)cc2O)c1NC(=O)c1cc2ccccc2n1C` the same measures were 360 nM and 62 nM.
For `CCNC(=O)c1noc(-c2cc(C(C)C)c(O)cc2O)c1NC(=O)[C@H]1CC[C@H](C(N)=O)CC1` the same measures were over 1000 nM and under 5 nM.
For `CCNC(=O)c1noc(-c2cc(Cl)c(O)cc2O)c1NC(=O)c1ccc(OC)cc1` the same measures were over 1000 nM and 184 nM.
In the case of `CCNC(=O)c1noc(-c2cc(Cl)c(O)cc2O)c1NC1CCN(C)CC1`, the values for the 50% inhibitory concentration (IC50) (in the experiment with NCI-H460; in experiment [1]) were over 1000 nM and 1600 nM, respectively.
The matching figures for `CCNC(=O)c1noc(-c2cc(C(C)C)c(O)cc2O)c1NC(=O)c1oc2ccc(OC)cc2c1C`: 750 nM and 48 nM.
For `CCNC(=O)c1noc(-c2cc(C(C)C)c(O)cc2O)c1NC(=O)c1ccc2ccsc2c1` the same measures were 180 nM and 20 nM.
In the case of `CCNC(=O)c1noc(-c2cc(C(C)C)c(O)cc2O)c1NC(=O)[C@H]1CC[C@@H](O)CC1`, the half-maximal inhibitory concentration (IC50) in the experiment on NCI-H460 was 500 nM; in experiment [1] it was under 5 nM.
With `CCNC(=O)c1noc(-c2cc(C(C)C)c(O)cc2O)c1NC(=O)CCN1CCOCC1`, the IC50 came out at 110 nM in the experiment on NCI-H460 and 214 nM in experiment [1].
For `CCNC(=O)c1noc(-c2cc(C(C)C)c(O)cc2O)c1NC(=O)C1CCNCC1` the same measures were over 1000 nM and under 5 nM.
With `CCNC(=O)c1noc(-c2cc(C(C)C)c(O)cc2O)c1NC(=O)[C@H]1CC[C@H](CO)CC1`, the IC50 is 600 nM in the experiment on NCI-H460 and under 5 nM in experiment [1].
For `CCNC(=O)c1noc(-c2cc(C(C)C)c(O)cc2O)c1NC(=O)c1sc(C)nc1C` the same measures were 560 nM and 10 nM.
The matching figures for `CCNC(=O)c1noc(-c2cc(C(C)C)c(O)cc2O)c1NC(=O)c1ccc2ncoc2c1`: 110 nM and 15 nM.
The matching figures for `CCNC(=O)c1noc(-c2cc(C(C)C)c(O)cc2O)c1NC(=O)c1ccc(C)o1`: 16 nM and under 5 nM.
Turning to `CCNC(=O)c1noc(-c2cc(C(C)C)c(O)cc2O)c1NC(=O)[C@@H]1CC[C@H](C(=O)OC)C1`, the results for the IC50 (in the experiment on NCI-H460; in experiment [1]) were 22 nM and under 5 nM, respectively.
For `CCNC(=O)c1noc(-c2cc(Cl)c(O)cc2O)c1NC(=O)CCN1CCOCC1` the same measures were 130 nM and 168 nM.
Take `CCNC(=O)c1noc(-c2cc(C(C)C)c(O)cc2O)c1NC(=O)[C@H]1CC[C@H](N)CC1`: the IC50 with NCI-H460 is over 1000 nM; in experiment [1], 28 nM.
As for `CCNC(=O)c1noc(-c2cc(Cl)c(O)cc2O)c1NCc1sccc1C`, the half-inhibitory concentration (IC50) with NCI-H460 was over 1000 nM; in experiment [1], 230 nM.
On to `CCNC(=O)c1noc(-c2cc(C(C)C)c(O)cc2O)c1NC(=O)[C@H]1CC[C@H](CNS(=O)(=O)c2ccc(F)cc2)CC1`, for which the IC50 stood at 640 nM with NCI-H460 and 5.4 nM in experiment [1].

For the origin of these results see ChEMBL document CHEMBL1938264, “Novel 3,4-isoxazolediamides as potent inhibitors of chaperone heat shock protein 90” (J Med Chem, 2011).
